Results from PMC8808171, “Nonselective TRPC channel inhibition and suppression of aminoglycoside-induced premature termination codon readthrough by the small molecule AC1903” (The Journal of Biological Chemistry, 2022).
pIC50: −log10 of the molar value.

What was measured:
DMS-114 cells = test: Measurement of intracellular G418 (gentamicin ELISA) in DMS-114 cells; type: cell-based, human; settings: Pico145 up to 3 μM, 400 μg/ml G418 (Fig. 3B)
Procedure: Figure 2 Effect of AC1903 on PTC readthrough and G418 trafficking.A and B, DMS-114 (A) or TC-71 (B) cells were pretreated with indicated concentrations of AC1903 for 3 h followed by exposure to 400 μg/ml G418. After 3 h medium was replenished and at 24 h cell lysates were prepared and p53 levels were measured. C and E, DMS-114 (C) or JEB01 (E) cells were either left untreated or pretreated with 150 μM AC1903 for 3 h followed by exposure to indicated concentrations of G418 for another 3 h. At 24 h cell lysates were prepared and p53 (C) or Collagen XVII (E) levels were measured. In panels A–C, protein levels were measured by automated capillary electrophoresis Western analysis (using vinculin as loading control). In panel E, protein levels were measured by Western blot (using beta-actin as loading control). […] D, total intracellular levels of G418 were measured in the same lysates as in (C) (n = 5; data normalized to the highest response in each experiment; bars represent mean ± SD). F, total intracellular levels of G418 were measured in the same lysates as in (E) (n = 2; data normalized to the highest response in each experiment; bars represent mean ± SD). ∗ indicates statistically significant difference between samples according to one-way ANOVA (p < 0.05). […]

[1] = system: DMS-114 cells (TP53 R213X); test: G418-induced PTC readthrough (full-length p53, capillary electrophoresis Western) in DMS-114 cells; type: cell-based, human
[2] = system: DMS-114 cells (TP53 R213X); test: as above; type: cell-based, human; settings: for suppression of PTC readthrough induced by 400 μg/ml G418: 3 h preincubation with inhibitor, screen at two concentrations (Fig. 1C)
Excerpt: (§1) Variation in PTC readthrough response has been reported among individuals or cell lines with different nonsense mutations. Although this in part highlights the importance of the stop codon and its surrounding sequence as well as the physical location of the nonsense mutation in the mRNA sequence, understanding the contribution of other underlying genetic variations becomes more complicated. To rule out the effect of the sequence and position of nonsense mutations on response variation to potential PTC readthrough modulators, we studied two cancer cell lines, DMS-114 and TC-71, with identical homozygous nonsense mutation R213X in their TP53 gene. […] To find out whether the reduced response to G418 in TC-71 cells was associated with lower intracellular levels of G418, we measured concentrations of G418 in both cell lines at 0, 8 and 24 h post exposure to G418 (100 μg/ml).
Figure 1 Effect of TRPC inhibitors on G418 induced PTC readthrough. A, DMS-114 and TC-71 cell lines with homozygous TP53 nonsense mutation (R213X) were exposed to indicated concentrations of G418 for 24 h and p53 levels (full-length, FL-p53; truncated, TR-p53) were measured. B, 100 μg/ml G418 was added to DMS-114 and TC-71 cells and its total intracellular levels were measured at indicated time points (n = 5; data normalized to the highest response in each experiment; bars represent mean ± SD). C, DMS-114 cells were preincubated with indicated concentrations of TRPC inhibitors GFB-8438 (GFB), SAR7334 (SAR), SKF96365 (SKF), 2-APB, or AC1903 for 3 h followed by exposure to 400 μg/ml G418 for another 3 h. At 24 h cell lysates were prepared and p53 levels were measured. In panels A and C, protein levels were measured by automated capillary electrophoresis Western analysis (using vinculin and GAPDH as loading controls). Samples of cell lysates containing equal amounts of total protein were loaded in all capillaries and FL-p53 levels were expressed relative to the amount of FL-p53 in untreated cells. ∗ indicates statistically significant difference between samples according to two-way ANOVA (p < 0.05). PTC, premature termination codon; TRPC, transient receptor potential canonical.
To further investigate AC1903 as a suppressor of G418-induced PTC readthrough, we exposed DMS-114 and TC-71 cells to various concentrations of AC1903 for 3 h prior to exposure to 400 μg/ml G418 for another 3 h, followed by media replacement and incubation for another 18 h.
Figure 2 Effect of AC1903 on PTC readthrough and G418 trafficking.A and B, DMS-114 (A) or TC-71 (B) cells were pretreated with indicated concentrations of AC1903 for 3 h followed by exposure to 400 μg/ml G418. After 3 h medium was replenished and at 24 h cell lysates were prepared and p53 levels were measured. C and E, DMS-114 (C) or JEB01 (E) cells were either left untreated or pretreated with 150 μM AC1903 for 3 h followed by exposure to indicated concentrations of G418 for another 3 h. At 24 h cell lysates were prepared and p53 (C) or Collagen XVII (E) levels were measured. In panels A–C, protein levels were measured by automated capillary electrophoresis Western analysis (using vinculin as loading control). In panel E, protein levels were measured by Western blot (using beta-actin as loading control). Samples of cell lysates containing equal amounts of total protein were loaded in all capillaries and FL-p53 or Collagen XVII levels were expressed relative to their respective amounts in untreated cells. D, total intracellular levels of G418 were measured in the same lysates as in (C) (n = 5; data normalized to the highest response in each experiment; bars represent mean ± SD). F, total intracellular levels of G418 were measured in the same lysates as in (E) (n = 2; data normalized to the highest response in each experiment; bars represent mean ± SD). ∗ indicates statistically significant difference between samples according to one-way ANOVA (p < 0.05). PTC, premature termination codon. […]

hTRPV4 = system: hTRPV4; set-up: method as in PMID 23136043, PMID 28523109; settings: cited from earlier work
TC-71 cells = test: Measurement of intracellular G418 (gentamicin ELISA) in TC-71 cells; type: cell-based, human; settings: 100 μg/ml G418
Excerpt: as §1
(§2) Figure 1 Effect of TRPC inhibitors on G418 induced PTC readthrough. A, DMS-114 and TC-71 cell lines with homozygous TP53 nonsense mutation (R213X) were exposed to indicated concentrations of G418 for 24 h and p53 levels (full-length, FL-p53; truncated, TR-p53) were measured. B, 100 μg/ml G418 was added to DMS-114 and TC-71 cells and its total intracellular levels were measured at indicated time points (n = 5; data normalized to the highest response in each experiment; bars represent mean ± SD). […]

TC-71 cells (TP53 R213X) = test: G418-induced PTC readthrough (full-length p53, capillary electrophoresis Western) in TC-71 cells; type: cell-based; settings: increasing concentrations of G418, 24 h
Excerpt: as §1, §2

For Cn1c(=O)n(CCCO)c(=O)c2c1nc(Oc1cccc(OC(F)(F)F)c1)n2Cc1ccc(Cl)cc1 [Pico145], which “effect on intracellular G418 levels” value (DMS-114 cells) is on record?
The value was “did not affect”.

And the “effect on PTC readthrough” value ([1]; Pico145 up to 3 μM, 400 μg/ml G418 (Fig. 3A))?
The value was “did not affect”.

For N#Cc1ccc(O[C@@H]2c3ccccc3C[C@H]2N2CCC[C@@H](N)C2)c(Cl)c1 [SAR7334], which “suppression of PTC readthrough induced by 400 μg/ml G418” value (from here on “suppression of PTC readthrough induced”) [2] is on record?
The value was “no effect”.

Which “suppression of PTC readthrough induced” value [2] does the source give for NCCOB(c1ccccc1)c1ccccc1 [2-APB] here?
Its value is roughly 66%.

With O=C1CN(c2cn[nH]c(=O)c2Cl)CCN1Cc1ccccc1C(F)(F)F [GFB-8438] as the molecule, how does the “suppression of PTC readthrough induced” value [2] read?
Its value is “no effect”.

Which “suppression of PTC readthrough induced” value [2] does the source give for COc1ccc(CCCOC(Cn2ccnc2)c2ccc(OC)cc2)cc1 (stereo not drawn) [SKF96365] here?
Its value is roughly 33%.

With O=C(NC1(c2ccccc2)CC1)c1c(CN2CCC(N3CCCCC3)CC2)c(-c2cccc(C(F)(F)F)c2)nc2cc(Br)ccc12 [GSK2193874] as the molecule, how does the pIC50 (hTRPV4) read?
Its pIC50 is 7.40.

What about the “effect on full-length p53 production” value ([1]; 0.03–3 μM GSK2193874 alone or in combination with 400 μg/ml G418 (Fig. S12)) of the same molecule?
The value was “did not have a major effect”.

For CN[C@@H]1[C@@H](O)[C@@H](O[C@@H]2[C@@H](O)[C@H](O[C@H]3O[C@H]([C@@H](C)O)[C@@H](O)[C@H](O)[C@H]3N)[C@@H](N)C[C@H]2N)OC[C@]1(C)O [G418], which “intracellular G418 level lower in TC-71 compared with DMS-114” value (TC-71 cells; 8 h post exposure) is on record?
The value was roughly 11%.

And the “intracellular G418 level lower in TC-71 compared with DMS-114” value (TC-71 cells; 24 h post exposure)?
Its value is roughly 9%.

What about the “increase in production of full-length p53 (readthrough product) compared with untreated cells” value ([2]; increasing concentrations of G418, 24 h) of the same molecule?
Its value is “up to 144 fold”.

What about the “increase in PTC readthrough compared to untreated cells” value (TC-71 cells (TP53 R213X)) of the same molecule?
Its value is “up to eightfold”.
